Measured values as given in patent publication US10524472B2, “Elicitor peptides having disrupted hypersensitive response box and use thereof” (Plant Health Care, Inc., priority 2014, dated 2020).
Marks after values point to notes of the source that are not given here.

Tested on: tobacco mosaic virus (TMV)
Test: Induction of resistance to tobacco mosaic virus in tobacco
Assay type: in vivo
Details: for efficacy on covered leaves, systemic immune response: covered leaf; for Effectiveness Covered (%) (decline in TMV lesions vs UTC, systemic response) / Effectiveness Uncovered (%) (decline in TMV lesions vs UTC, local response): TMV 3 days post-treatment, scored 3 days after inoculation; for TMV response / effectiveness against TMV infection (summary of Table 22): foliar spray

Substance	Effectiveness Covered (%) (decline in TMV lesions vs UTC, systemic response) (spray 20 ug/ml)	Effectiveness Uncovered (%) (decline in TMV lesions vs UTC, local response) (spray 20 ug/ml)	other results
GGLTLTGVDQKLMKILNALVQ (P25-9D)	55%	78* %	efficacy on covered leaves, systemic immune response: reduced efficacy on covered leaves
KPNDSQSNIAKLISALI (P15-62)	−122%	94* %	–
KPNDSQSNIAKLISALIMSLSQ (P15b-21S)	97* %	100* %	–
KPNDSQSNIAKSISALIMSLLQ (P15b-12S)	47%	76* %	–
PSPFTQMLMHIVGEDLQAQN (P6a-15D)	74* %	74* %	–
PSPFTQMLMHSVGEILQAQN (P6a-11S)	88* %	71* %	–
QAGPQSANKTGNVDDANNQDPAQALAQLLEDLV (P14-22A,26A)	–	–	Effectiveness Covered (%) (decline in TMV lesions vs UTC, systemic response) (spray 10 ug/ml): 93* %; Effectiveness Uncovered (%) (decline in TMV lesions vs UTC, local response) (spray 10 ug/ml): 92* %
QAGPQSANKTGNVDDANNQDPAQALLQLLEDLV (P14-22A,26L)	62%	48%	–
QAGPQSANKTGNVDDANNQDPEQALLQLLEDLV (P14-22E,26L)	84* %	61* %	–
QAGPQSANKTGNVDDANNQDPE_ALAQLLEDLV (QAGPQSANKTGNVDDANNQDPEALAQLLEDLV; P14-22E,26A)	88* %	89* %	–
QAGPQSANKTGNVDDANNQDPLQAAAQLLEDLV (P14-22L,25-26A)	–	–	Effectiveness Covered (%) (decline in TMV lesions vs UTC, systemic response) (spray 10 ug/ml): 75* %; Effectiveness Uncovered (%) (decline in TMV lesions vs UTC, local response) (spray 10 ug/ml): 87* %
QAGPQSANKTGNVDDANNQDPLQALAQLAEDLV (P14-22L,26,29A)	–	–	Effectiveness Covered (%) (decline in TMV lesions vs UTC, systemic response) (spray 10 ug/ml): 70* %; Effectiveness Uncovered (%) (decline in TMV lesions vs UTC, local response) (spray 10 ug/ml): 85* %
QAGPQSANKTGNVDDANNQDPLQALAQLLEDLV (P14-22L,26A)	83* %	72* %	–
QAGPQSANKTGNVDDANNQDPLQALLQLAEDAV (p14-22L,29,32A) [P14-22L,28,32A]	–	–	Effectiveness Covered (%) (decline in TMV lesions vs UTC, systemic response) (spray 10 ug/ml): 37* %; Effectiveness Uncovered (%) (decline in TMV lesions vs UTC, local response) (spray 10 ug/ml): 71* %
QAGPQSANKTGNVDDANNQDPLQALLQLLEDAA (P14-22L,32-33A)	–	–	Effectiveness Covered (%) (decline in TMV lesions vs UTC, systemic response) (spray 10 ug/ml): 69* %; Effectiveness Uncovered (%) (decline in TMV lesions vs UTC, local response) (spray 10 ug/ml): 91* %
QAGPQSANKTGNVDDANNQDPMQALMQLLED (P14-dc2)	–	–	Effectiveness Covered (%) (decline in TMV lesions vs UTC, systemic response) (spray 10 ug/ml): 56%; Effectiveness Uncovered (%) (decline in TMV lesions vs UTC, local response) (spray 10 ug/ml): 76* %
QAGPQSANKTGNVDDANNQDPMQALMQLLEDL (P14-dc1)	–	–	Effectiveness Covered (%) (decline in TMV lesions vs UTC, systemic response) (spray 10 ug/ml): 46%; Effectiveness Uncovered (%) (decline in TMV lesions vs UTC, local response) (spray 10 ug/ml): 65* %
QDPAQALEQLLEDLVKSLK (p14f-17S)	84* %	94* %	–
QDPMQADMQLLEDLVKLLK (P14d-7D)	55* %	71* %	–
QDPMQALMQDLEDLVKLLK (P14d-10D)	84* %	84* %	–
QDPMQALMQLDEDLVKLLK (P14d-11D)	87* %	81* %	–
QDPMQALMQLLEDDVKLLK [P14d-14D]	35%	84* %	–
QDPMQALMQLLEDLDKLLK (P14d-15D)	74* %	87* %	–
QDPMQALMQLLEDLVKDLK (P14d-17D)	65* %	68* %	–
QDPMQALMQLLEDLVKLDK (P14d-18D)	32%	52%	TMV response / effectiveness against TMV infection (summary of Table 22): weaker TMV responses
QDPMQASMQLLEDLVKLLK (P14d-7S)	23%	−112%	efficacy on covered leaves, systemic immune response: reduced efficacy on covered leaves
QQPIDRQTIEQMAQLLAQLL (P18-8)	78* %	55%	–
SEEEEEALEQLLEDLVKLL (P14-31)	87* %	85* %	–

Substance	Effectiveness Covered (%) (decline in TMV lesions vs UTC, systemic response) (spray 20 ug/ml)	Effectiveness Uncovered (%) (decline in TMV lesions vs UTC, local response) (spray 20 ug/ml)	other results
SEEEEEDAQLLAQLLKSLL (P18min-7D)	29%	26%	efficacy on covered leaves, systemic immune response: reduced efficacy on covered leaves; TMV response / effectiveness against TMV infection (summary of Table 22): weaker TMV responses
SEEEEEEEIAKLISALIESLL (P15-60)	13%	55%	–
SEEEEEEEIAKLIS_LIESLL (SEEEEEEEIAKLISLIESLL; P15-61)	7%	55* %	–
SEEEEEEIAKLISALI (P15-63)	74* %	90* %	–
SEEEEELAQLLAQLL (P18-9)	52%	65* %	–
SEEEEELAQLSAQLLKSLL (P18min-11S)	−274%	−90%	TMV response / effectiveness against TMV infection (summary of Table 22): weaker TMV responses
SEEEEELEQLLEDLV (P14-39)	66* %	72* %	–
SEEEEELKALLKSIARLL (P19min-13S)	−70%	35%	TMV response / effectiveness against TMV infection (summary of Table 22): poor immune activation; TMV response / effectiveness against TMV infection (summary of Table 22) (listed as P19 min-135): weaker TMV responses
SEEEEELKALSKLIARLL (P19min-11S)	45%	71* %	–
SEEEEELKASLKLIARLL (P19min-10S)	94* %	81* %	–
SEEEEELLQLLEDLV (P14-41)	61* %	86* %	–
SEEEEELQKLLK_ILEALV (SEEEEELQKLLKILEALV; P25-9)	87* %	68%	–
SEEEEELQQLLKLFSEILQ (P3-10)	95* %	94* %	–
SEEEEELTGVLQKLLK_ILE (SEEEEELTGVLQKLLKILE; P25-12)	58%	77* %	–
SEEEEELTGVLQKLSKILEAL (P25min-15S)	74* %	81* %	–
SEEEEELTLTGVLQKLLKIL (P25-14)	−87%	52%	TMV response / effectiveness against TMV infection (summary of Table 22): weaker control of TMV infection
SEEEELDQLLSQLI (P4-115)	87* %	87* %	–
SEEEELDQLLTQLI (P1-31)	88* %	95* %	TMV response / effectiveness against TMV infection (summary of Table 22): anti-TMV activity
SQGISEKQLADQLLASQLIAQALLQP (P4-i10A,14A,18A)	–	–	Effectiveness Covered (%) (decline in TMV lesions vs UTC, systemic response) (spray 10 ug/ml): 69%; Effectiveness Uncovered (%) (decline in TMV lesions vs UTC, local response) (spray 10 ug/ml): 75%
SQGISEKQLADQLLSQLIQALLQP (P4-i10A)	–	–	Effectiveness Covered (%) (decline in TMV lesions vs UTC, systemic response) (spray 10 ug/ml): 81%; Effectiveness Uncovered (%) (decline in TMV lesions vs UTC, local response) (spray 10 ug/ml): 92%
SQGISEKQLDQLLASQLIQALLQP (P4-i14A)	–	–	Effectiveness Covered (%) (decline in TMV lesions vs UTC, systemic response) (spray 10 ug/ml): 77%; Effectiveness Uncovered (%) (decline in TMV lesions vs UTC, local response) (spray 10 ug/ml): 75%
SQGISEKQLDQLLSQAIQALLQP (P4-14S-16A)	–	–	TMV response / effectiveness against TMV infection (summary of Table 22): weaker TMV responses; Effectiveness Covered (%) (decline in TMV lesions vs UTC, systemic response) (spray 10 ug/ml): 3%; Effectiveness Uncovered (%) (decline in TMV lesions vs UTC, local response) (spray 10 ug/ml): 1%
SQGISEKQLDQLLSQL (P4-116)	–	–	TMV response / effectiveness against TMV infection (summary of Table 22): reduced effectiveness against TMV infection; Effectiveness Covered (%) (decline in TMV lesions vs UTC, systemic response) (spray 10 ug/ml): 0* %; Effectiveness Uncovered (%) (decline in TMV lesions vs UTC, local response) (spray 10 ug/ml): 52%
SQGISEKQLDQLLSQLFQALLQP (P4-14S-17F)	–	–	Effectiveness Covered (%) (decline in TMV lesions vs UTC, systemic response) (spray 10 ug/ml): 57%; Effectiveness Uncovered (%) (decline in TMV lesions vs UTC, local response) (spray 10 ug/ml): 94%
SQGISEKQLDQLLSQLI (P4-111)	–	–	Effectiveness Covered (%) (decline in TMV lesions vs UTC, systemic response) (spray 10 ug/ml): 65%; Effectiveness Uncovered (%) (decline in TMV lesions vs UTC, local response) (spray 10 ug/ml): 58%
SQGISEKQLDQLLSQLIAQALLQP (P4-i18A)	–	–	Effectiveness Covered (%) (decline in TMV lesions vs UTC, systemic response) (spray 10 ug/ml): 50%; Effectiveness Uncovered (%) (decline in TMV lesions vs UTC, local response) (spray 10 ug/ml): 81%
SQGISEKQLDQLLSQLIQALDQP (P4-14S-21D)	–	–	Effectiveness Covered (%) (decline in TMV lesions vs UTC, systemic response) (spray 10 ug/ml): 48%; Effectiveness Uncovered (%) (decline in TMV lesions vs UTC, local response) (spray 10 ug/ml): 49%
